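Test compounds were applied to cells in 96-well plates for 48 hours at 5 doses. TGI: concentration producing complete growth inhibition.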
Key:
Test in all cases: NCI anticancer screen, dose series, 48 h
786-0 renal = test system: 786-0 renal
A498 renal = test system: A498 renal
A549 NSCLC = test system: A549 NSCLC
ACHN renal = test system: ACHN renal
BT-549 breast = test system: BT-549 breast
CAKI-1 renal = test system: CAKI-1 renal
CCRF-CEM leukemia = test system: CCRF-CEM leukemia
COLO 205 colon = test system: COLO 205 colon
DU-145 prostate = test system: DU-145 prostate
EKVX NSCLC = test system: EKVX NSCLC
HCC-2998 colon = test system: HCC-2998 colon
HCT-116 colon = test system: HCT-116 colon
HCT-15 colon = test system: HCT-15 colon
HOP-62 NSCLC = test system: HOP-62 NSCLC
HOP-92 NSCLC = test system: HOP-92 NSCLC
HS 578T breast = test system: HS 578T breast
HT29 colon = test system: HT29 colon
IGROV1 ovarian = test system: IGROV1 ovarian
K-562 leukemia = test system: K-562 leukemia
KM12 colon = test system: KM12 colon
LOX IMVI melanoma = test system: LOX IMVI melanoma
M14 melanoma = test system: M14 melanoma
MCF7 breast = test system: MCF7 breast
MDA-MB-231 breast = test system: MDA-MB-231 breast
MDA-MB-435 = test system: MDA-MB-435
MDA-N = test system: MDA-N
MOLT-4 leukemia = test system: MOLT-4 leukemia
NCI-H226 lung = test system: NCI-H226 lung
NCI-H23 lung = test system: NCI-H23 lung
NCI-H460 lung = test system: NCI-H460 lung
NCI-H522 lung = test system: NCI-H522 lung
NCI/ADR-RES ovarian = test system: NCI/ADR-RES ovarian
OVCAR-3 ovarian = test system: OVCAR-3 ovarian
OVCAR-4 ovarian = test system: OVCAR-4 ovarian
OVCAR-5 ovarian = test system: OVCAR-5 ovarian
OVCAR-8 ovarian = test system: OVCAR-8 ovarian
PC-3 prostate = test system: PC-3 prostate
RPMI-8226 leukemia = test system: RPMI-8226 leukemia
RXF 393 renal = test system: RXF 393 renal
SF-268 CNS = test system: SF-268 CNS
SF-295 CNS = test system: SF-295 CNS
SF-539 CNS = test system: SF-539 CNS
SK-MEL-2 melanoma = test system: SK-MEL-2 melanoma
SK-MEL-28 melanoma = test system: SK-MEL-28 melanoma
SK-MEL-5 melanoma = test system: SK-MEL-5 melanoma
SK-OV-3 ovarian = test system: SK-OV-3 ovarian
SN12C renal = test system: SN12C renal
SNB-19 CNS = test system: SNB-19 CNS
SNB-75 CNS = test system: SNB-75 CNS
SR leukemia = test system: SR leukemia
SW-620 colon = test system: SW-620 colon
T-47D breast = test system: T-47D breast
TK-10 renal = test system: TK-10 renal
U251 CNS = test system: U251 CNS
UACC-257 melanoma = test system: UACC-257 melanoma
UACC-62 melanoma = test system: UACC-62 melanoma
UO-31 renal = test system: UO-31 renal
MALME-3M melanoma = test system: MALME-3M melanoma

For `CC(=O)/C(=C/N1CCNC1=S)C(=O)Nc1ccccc1C`, the TGI (786-0 renal) was > 100 µM, the TGI (A498 renal) was > 100 µM and the TGI (A549 NSCLC) was > 100 µM. For the same compound, the TGI (ACHN renal) was > 100 µM, the TGI (BT-549 breast) was > 100 µM and the TGI (CAKI-1 renal) was > 100 µM. The TGI (CCRF-CEM leukemia) was > 100 µM, the TGI (COLO 205 colon) was > 100 µM and the TGI (DU-145 prostate) was > 100 µM. For the same compound, the TGI (EKVX NSCLC) was > 100 µM, the TGI (HCC-2998 colon) was > 100 µM and the TGI (HCT-116 colon) was > 100 µM. For the same compound, the TGI (HCT-15 colon) was > 100 µM, the TGI (HOP-62 NSCLC) was > 100 µM and the TGI (HOP-92 NSCLC) was > 100 µM. For the same compound, the TGI (HS 578T breast) was > 100 µM, the TGI (HT29 colon) was > 100 µM and the TGI (IGROV1 ovarian) was > 100 µM. For the same compound, the TGI (K-562 leukemia) was > 100 µM, the TGI (KM12 colon) was > 100 µM and the TGI (LOX IMVI melanoma) was > 100 µM. For the same compound, the TGI (M14 melanoma) was > 100 µM, the TGI (MCF7 breast) was > 100 µM and the TGI (MDA-MB-231 breast) was > 100 µM. The TGI (MDA-MB-435) was > 100 µM, the TGI (MDA-N) was > 100 µM and the TGI (MOLT-4 leukemia) was > 100 µM. The TGI (NCI-H226 lung) was > 100 µM, the TGI (NCI-H23 lung) was > 100 µM and the TGI (NCI-H460 lung) was > 100 µM. The TGI (NCI-H522 lung) was > 100 µM, the TGI (NCI/ADR-RES ovarian) was > 100 µM and the TGI (OVCAR-3 ovarian) was > 100 µM. The TGI (OVCAR-4 ovarian) was > 100 µM, the TGI (OVCAR-5 ovarian) was > 100 µM and the TGI (OVCAR-8 ovarian) was > 100 µM. The TGI (PC-3 prostate) was > 100 µM, the TGI (RPMI-8226 leukemia) was > 100 µM and the TGI (RXF 393 renal) was > 100 µM. For the same compound, the TGI (SF-268 CNS) was > 100 µM, the TGI (SF-295 CNS) was > 100 µM and the TGI (SF-539 CNS) was > 100 µM. For the same compound, the TGI (SK-MEL-2 melanoma) was > 100 µM, the TGI (SK-MEL-28 melanoma) was > 100 µM and the TGI (SK-MEL-5 melanoma) was > 100 µM. The TGI (SK-OV-3 ovarian) was > 100 µM, the TGI (SN12C renal) was > 100 µM and the TGI (SNB-19 CNS) was > 100 µM. The TGI (SNB-75 CNS) was > 100 µM, the TGI (SR leukemia) was > 100 µM and the TGI (SW-620 colon) was > 100 µM. For the same compound, the TGI (T-47D breast) was > 100 µM, the TGI (TK-10 renal) was > 100 µM and the TGI (U251 CNS) was > 100 µM. The TGI (UACC-257 melanoma) was > 100 µM, the TGI (UACC-62 melanoma) was > 100 µM and the TGI (UO-31 renal) was > 100 µM.

For `Cc1ccc(N=C2C(=Nc3ccc(C)cc3)N(c3ccc(C)cc3)C(=S)N2C(=O)c2ccccc2)cc1`, the TGI (786-0 renal) was > 100 µM, the TGI (A549 NSCLC) was > 100 µM and the TGI (ACHN renal) was > 100 µM. For the same compound, the TGI (BT-549 breast) was > 100 µM, the TGI (CAKI-1 renal) was > 100 µM and the TGI (COLO 205 colon) was > 100 µM. The TGI (DU-145 prostate) was > 100 µM, the TGI (EKVX NSCLC) was > 100 µM and the TGI (HCC-2998 colon) was > 100 µM. For the same compound, the TGI (HCT-15 colon) was > 100 µM, the TGI (HOP-62 NSCLC) was > 100 µM and the TGI (HOP-92 NSCLC) was > 100 µM. The TGI (HS 578T breast) was > 100 µM, the TGI (HT29 colon) was > 100 µM and the TGI (IGROV1 ovarian) was > 100 µM. The TGI (K-562 leukemia) was > 100 µM, the TGI (KM12 colon) was > 100 µM and the TGI (M14 melanoma) was > 100 µM. For the same compound, the TGI (MALME-3M melanoma) was > 100 µM, the TGI (MCF7 breast) was > 100 µM and the TGI (MDA-MB-231 breast) was > 100 µM. For the same compound, the TGI (MDA-MB-435) was > 100 µM, the TGI (MDA-N) was > 100 µM and the TGI (MOLT-4 leukemia) was > 100 µM. For the same compound, the TGI (NCI-H226 lung) was > 100 µM, the TGI (NCI-H23 lung) was > 100 µM and the TGI (NCI-H460 lung) was > 100 µM. For the same compound, the TGI (NCI-H522 lung) was > 100 µM, the TGI (NCI/ADR-RES ovarian) was > 100 µM and the TGI (OVCAR-3 ovarian) was > 100 µM. The TGI (OVCAR-5 ovarian) was > 100 µM, the TGI (PC-3 prostate) was > 100 µM and the TGI (RPMI-8226 leukemia) was > 100 µM. The TGI (RXF 393 renal) was > 100 µM, the TGI (SF-268 CNS) was > 100 µM and the TGI (SF-295 CNS) was 32.3 µM. For the same compound, the TGI (SF-539 CNS) was > 100 µM, the TGI (SK-MEL-2 melanoma) was > 100 µM and the TGI (SK-MEL-28 melanoma) was > 100 µM. The TGI (SK-MEL-5 melanoma) was > 100 µM, the TGI (SK-OV-3 ovarian) was > 100 µM and the TGI (SN12C renal) was > 100 µM. The TGI (SNB-19 CNS) was > 100 µM, the TGI (SNB-75 CNS) was 81.2 µM and the TGI (SR leukemia) was > 100 µM. The TGI (SW-620 colon) was > 100 µM, the TGI (T-47D breast) was > 100 µM and the TGI (TK-10 renal) was > 100 µM. The TGI (U251 CNS) was > 100 µM, the TGI (UACC-62 melanoma) was > 100 µM and the TGI (UO-31 renal) was > 100 µM.
